Experimental data taken from PubChem BioAssay AID1996.
In brackets after ≈: the same amount, converted by molar mass.

conditions: buffer; pH 7.4; 200.0 µM

Row | Compound | solubility kinetic
1 | COc1ccc(C(C)=O)cc1COC(=O)CNC(=O)C1CCCCC1 | > 52.1 µg/mL
2 | CC1CCC2(CC1)NC(=O)N(CC(=O)NCc1ccc3c(c1)OCO3)C2=O (stereo not given) | 6.1 µg/mL (≈ 16.3 µM)
3 | COC(=O)C1=C(NC(=O)c2ccccc2C)CCS1 | 10 µg/mL (≈ 36.1 µM)
4 | O=C(COC(=O)c1ccco1)Nc1cccc(S(=O)(=O)N2CCCCC2)c1 | 54.5 µg/mL (≈ 139 µM)
5 | CC(=O)Nc1cccc(NC(=O)CCCC2CCCCC2)c1 | 3 µg/mL (≈ 9.92 µM)
6 | O=C(Nc1cc2c3c(c1)CC(=O)N3CCC2)c1ccc(F)cc1 | > 46.5 µg/mL
7 | O=C(Nc1ccc2ccccc2c1)c1cccc([N+](=O)[O-])c1 | < 0.3 µg/mL
8 | COc1ccc(OCCNC(=O)CCCO)cc1 | 4 µg/mL (≈ 15.8 µM)
9 | O=C1N(Cc2cccc(Cl)c2)C[C@@H]2C[C@@H](c3ccccn3)N3CCC[C@@]123 | 39 µg/mL (≈ 106 µM)
10 | CCCCN(C)Cc1c(C)[nH]c2ccccc2c1=O | > 38.8 µg/mL
11 | CCO/C(C)=C1/SC(=S)NC1=O | > 30.5 µg/mL
12 | CC(C)(C)CC(=O)NC(=S)NCc1ccccc1 | 1.7 µg/mL (≈ 6.43 µM)
13 | Cc1ccc(OCC(=O)NCCNC(=O)c2cnccn2)cc1 | 40.9 µg/mL (≈ 130 µM)
14 | O=C(Cc1ccccc1)N1CCN(CCCc2ccccc2)CC1.O=C(O)C(=O)O | > 61.9 µg/mL
15 | COc1cc(C(=O)O)nc(OC)n1 | > 27.6 µg/mL
16 | Cl.O=C(O)CSc1nc(-c2ccccc2)c(-c2ccccc2)[nH]1 | > 52 µg/mL
17 | CN(CCC#N)C(=O)COC(=O)c1ccc2c(c1)C(=O)N(C1CCCCC1)C2=O | 16.1 µg/mL (≈ 40.5 µM)
18 | CCOC(=O)c1cc(NC(=O)Nc2cc(C)ccn2)c(C)nc1C | 0.3 µg/mL (≈ 0.914 µM)
19 | CC(C(=O)Nc1ccc(Cl)cc1)N1C(=O)NC2(CCCC2)C1=O (stereo not given) | 25.8 µg/mL (≈ 76.8 µM)
20 | N#CCc1nc(-c2cc3ccccc3oc2=O)cs1 | 5.4 µg/mL (≈ 20.1 µM)

Row | Compound | solubility kinetic
21 | COc1cc(NC(=O)c2cc(C)no2)c(OC)cc1Cl | 1.8 µg/mL (≈ 6.07 µM)
22 | COc1cc(NC(=O)c2ccccc2Cl)c2ncccc2c1 | < 0.3 µg/mL
23 | Cc1ccc2nc(-c3ccccc3C)oc(=O)c2c1 | < 0.5 µg/mL
24 | O=C(COC(=O)c1cnccn1)Nc1cc(S(=O)(=O)N2CCOCC2)ccc1Cl | > 66.1 µg/mL
25 | NS(=O)(=O)c1ccc(CCNC(=O)Cc2cccs2)cc1 | 31.8 µg/mL (≈ 98 µM)
26 | CC1CN(S(=O)(=O)c2cccc(C(=O)N3CCC(C(N)=O)CC3)c2)CC(C)O1 (stereo not given) | > 61.4 µg/mL
27 | O=C(/C=C/c1ccco1)NC(=S)Nc1ccc(C(=O)O)cc1 | > 47.4 µg/mL
28 | Cc1cc(=O)oc2cc(NS(=O)(=O)c3ccccc3)ccc12 | 10.5 µg/mL (≈ 33.3 µM)
29 | COc1ccc(-n2c(C)c(C)c3c(NCCO)ncnc32)cc1 | > 46.9 µg/mL
30 | Cc1ccc(S(N)(=O)=O)cc1NC(=O)c1ccc2c3c(cccc13)CC2 | 3.1 µg/mL (≈ 8.46 µM)
31 | Cc1ccc(CC(=O)Nc2cc(C)ccn2)cc1 | > 36 µg/mL
32 | O=C(COC(=O)c1ccccn1)NC(=O)c1ccccc1 | 35 µg/mL (≈ 123 µM)
33 | COCCCN1C(=O)CS/C1=N\S(=O)(=O)c1ccccc1 | > 49.3 µg/mL
34 | Cc1ccc(NC(=O)CO/N=C(\N)c2ccccc2)cc1C | 5 µg/mL (≈ 16.8 µM)
35 | O=C(NC1CC1)[C@@H]1CSC2c3ccccc3C(=O)N21 (stereo not given in full) | > 41.2 µg/mL
36 | Cn1c(=O)c(C(=O)c2ccccc2)c(O)c2ccccc21 | 38.8 µg/mL (≈ 139 µM)
37 | CN1CCCN(Cc2ccccc2Br)CC1 | 35.3 µg/mL (≈ 125 µM)
38 | CCOC(=O)c1ccc(NC(=S)NCc2ccc(F)cc2)cc1 | 2.2 µg/mL (≈ 6.62 µM)
39 | Cc1ccc(C)c(NC(=O)C2CCCC2)c1 | > 32.6 µg/mL
40 | CCCC(=O)OCC(=O)Nc1ccccc1C#N | > 36.9 µg/mL

Row | Compound | solubility kinetic
41 | O=C(Nc1ccc2ncccc2c1)c1ccccc1Br | 3.3 µg/mL (≈ 10.1 µM)
42 | CC(=O)/C(=C\N(C)C)Sc1ccc(Cl)cc1 | 17.6 µg/mL (≈ 68.8 µM)
43 | O=C(NCCc1ccccc1F)c1cccc2cccnc12 | 31.4 µg/mL (≈ 107 µM)
44 | O=C(NC1CCCC1)c1cc(-c2ccc(F)cc2)on1 | 2.1 µg/mL (≈ 7.66 µM)
45 | O=C(Nc1cccc2ccccc12)NC(Cc1ccccc1)C(=O)O (stereo not given) | > 50.2 µg/mL
46 | CCN(c1ccccc1)S(=O)(=O)c1ccc(OC)c(NC(=O)C2CCC2)c1 | 23 µg/mL (≈ 59.2 µM)
47 | CC(C)CCn1c(N2CCCC2)nc2c1c(=O)[nH]c(=O)n2C | > 45.8 µg/mL
48 | Cc1ccc(CNC(=O)CCc2cn(C)c3ccccc23)cc1 | 5.1 µg/mL (≈ 16.6 µM)
49 | NS(=O)(=O)c1cccc(NC(=O)CSc2nc3ccccc3c(=O)n2Cc2ccco2)c1 | 6.4 µg/mL (≈ 13.6 µM)
50 | CCc1ccc(C(=O)CN2C(=O)NC(C)(c3ccc(C)cc3)C2=O)cc1 (stereo not given) | 2.1 µg/mL (≈ 5.99 µM)
51 | N#Cc1sc(NCc2ccccn2)nc1Cl | > 37.6 µg/mL
52 | CN(C)/C=C/C(=O)c1ccc(-n2cccc2)cc1 | > 36 µg/mL
53 | CCc1cnccc1CCC(=O)Nc1ccccc1C | 35.4 µg/mL (≈ 132 µM)
54 | COc1ccc(/C=C2\SC(=Nc3ccccc3OC)NC2=O)cc1 | 1.7 µg/mL (≈ 4.99 µM)
55 | CCNC(=S)Nc1ccc(-c2nc3ccccc3[nH]2)cc1 | > 44.5 µg/mL
56 | Cc1ccc(C(=O)CCC(=O)Nc2ccc(C)cn2)cc1 | 3.4 µg/mL (≈ 12 µM)
57 | CC(=NCc1cccnc1)c1c(O)n(-c2ccc(Cl)cc2)c(=O)[nH]c1=O | 2 µg/mL (≈ 5.39 µM)
58 | CCCn1cnc2c(oc3ccccc32)c1=O | > 34.2 µg/mL
59 | C=CCNC(=S)N1CCC(C(=O)c2ccc(C)cc2)CC1 | > 45.4 µg/mL
60 | COc1ccc(Cc2nc(-c3cccnc3)no2)cc1OC | 41 µg/mL (≈ 138 µM)
